US20180362543A1, “HIV REPLICATION INHIBITOR” (Shionogi & Co., Ltd., priority 2013, published 2018)

System: HIV (HTLV-III B strain)
Assay: HIV replication inhibition assay (MTT, MT-4 cells)
Type: cell-based
Summary of the method: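 MT-4 cells (2.5×10^4/well) infected with HTLV-III B stock (60 pfu) in presence of compound, cultured four days at 37 °C. Viability by MTT reduction, formazan read at 560 and 690 nm. EC50 is concentration inhibiting virus-induced cytotoxicity by 50%.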

[1] = Human immunodeficiency virus 1, MT4, 96 h, 4 days culture, concentration at which cell cytotoxicity by virus is inhibited 50%
[2] = Human immunodeficiency virus 1, MT4, 96 h, Table A-8 (continuation of Tables A-1 to A-9), four days
[3] = Human immunodeficiency virus 1, MT4, 96 h, Table A-3, four days
[4] = Human immunodeficiency virus 1, MT4, 96 h, Table A-5, four days
[5] = Human immunodeficiency virus 1, MT4, 96 h, Table A-2, four days
[6] = Human immunodeficiency virus 1, MT4, 96 h, Table A-7, four days

Cc1c(-c2ccc3c(c2C)N(C)CCO3)c([C@H](OC(C)(C)C)C(=O)O)c(C)c2c1-c1c(F)ccc(F)c1CN2S(C)(=O)=O [Compound 321]
EC50 [1]: 15 nM

Cc1c(-c2c([C@H](OC(C)(C)C)C(=O)O)c(C)c3nc(O)c4cc(F)cnc4c3c2C)ccc2c1NCCO2 [Compound 237]
EC50 (Human immunodeficiency virus 1, MT4, 96 h, Table A-4, four days): 12 nM

Cc1c(-c2c(C)c3c(c(C)c2[C@H](OC(C)(C)C)C(=O)O)N(S(C)(=O)=O)Cc2cccc(F)c2-3)ccc(Cl)c1O [Compound 372]
EC50 [2]: 81 nM

Cc1ccc(-c2c(C)c3c(c(C)c2[C@H](OC(C)(C)C)C(=O)O)N(S(=O)(=O)C2CC2)Cc2ccccc2-3)cc1 [Compound 155]
EC50 [3]: 39 nM

COc1ccc2c(n1)CN(S(C)(=O)=O)c1c(C)c([C@H](OC(C)(C)C)C(=O)O)c(-c3ccc(C)cc3)c(C)c1-2 [Compound 371]
EC50 [2]: 4.6 nM

Cc1ccc(-c2c(C)c3c(c(C)c2[C@H](OC(C)(C)C)C(=O)O)N(S(C)(=O)=O)Cc2cccc(Cl)c2-3)cc1 [Compound 302]
EC50 [1]: 28.1 nM

Cc1c(-c2c(C)c3c(c(C)c2[C@H](OC(C)(C)C)C(=O)O)N(S(C)(=O)=O)Cc2cc(F)cnc2-3)ccc2c1CCCO2 [Compound 320]
EC50 [1]: 3.1 nM

Cc1c(-c2ccc(Cl)cc2)c([C@H](OC(C)(C)C)C(=O)O)c(C)c2c1-c1c(F)cccc1CN2S(C)(=O)=O [Compound 265]
EC50 [4]: 11 nM

Cc1ccc(-c2c(C)c3c(c(C)c2[C@H](OC(C)(C)C)C(=O)O)N(S(C)(=O)=O)Cc2c(F)ncc(F)c2-3)cc1 [Compound 403]
EC50 (Human immunodeficiency virus 1, MT4, 96 h, Table A-9, four days): 14.6 nM

COc1ccc2c(c1)-c1c(C)c(-c3ccc(C)cc3)c([C@H](OC(C)(C)C)C(=O)O)c(C)c1N(S(C)(=O)=O)C2 [Compound 168]
EC50 [3]: 24 nM

Cc1ccc(-c2c(C)c3c(c(C)c2[C@H](OC(C)(C)C)C(=O)O)N(S(C)(=O)=O)Cc2cc(N(C)C)cnc2-3)cc1 [Compound 390]
EC50 [2]: 2.2 nM

Cc1c(-c2c(C)c3c(c(C)c2[C@H](OC(C)(C)C)C(=O)O)N(S(C)(=O)=O)Cc2cccc(F)c2-3)cc(F)c2c1CCCO2 [Compound 273]
EC50 [4]: 4.5 nM

Cc1c(-c2cc(F)c3c(c2F)CCCO3)c([C@H](OC(C)(C)C)C(=O)O)c(C)c2c1-c1c(F)ccc(F)c1CN2S(C)(=O)=O [Compound 299]
EC50 [1]: 26 nM

Cc1ccc(-c2c(C)c3c(c(C)c2[C@H](OC(C)(C)C)C(=O)O)N(S(C)(=O)=O)Cc2c(F)ccc(F)c2-3)c(F)c1 [Compound 304]
EC50 [1]: 5.2 nM

Cc1c(-c2c(C)c3c(c(C)c2[C@H](OC(C)(C)C)C(=O)O)N(S(C)(=O)=O)Cc2c(F)ccc(F)c2-3)ccc2c1NCCO2 [Compound 249]
EC50 [4]: 5.8 nM

Cc1c(-c2c(C)c3c(c(C)c2[C@H](OC(C)(C)C)C(=O)O)N(S(C)(=O)=O)Cc2cccc(F)c2-3)ccc(Br)c1N [Compound 367]
EC50 [2]: 7.6 nM

Cc1ccc(-c2c([C@H](OC(C)(C)C)C(=O)O)c(C)c3nc(O)c4cc(C(F)(F)F)ccc4c3c2C)cc1 [Compound 98]
EC50 [5]: 22 nM

Cc1ccc(-c2c(C)c3c(c(C)c2[C@H](OC(C)(C)C)C(=O)O)N(S(C)(=O)=O)Cc2c(C(F)(F)F)ccnc2-3)cc1 [Compound 319]
EC50 [1]: 8.4 nM

Cc1c([C@H](OC(C)(C)C)C(=O)O)c(-c2ccc3c(c2)CCCO3)c(C)c2c1ncc1ccsc12 [Compound 17]
EC50 [1]: 59 nM

Cc1cc(Cl)ccc1-c1c(C)c2c(c(C)c1[C@H](OC(C)(C)C)C(=O)O)N(S(C)(=O)=O)Cc1c(F)ccc(F)c1-2 [Compound 318]
EC50 (4 days culture, concentration at which cell cytotoxicity by virus is inhibited 50%): 17 nM

Cc1ccc(-c2c(C)c3c(c(C)c2[C@H](OC(C)(C)C)C(=O)O)N(S(C)(=O)=O)Cc2cccc(F)c2-3)c(O)c1 [Compound 381]
EC50 [2]: 5 nM

Cc1ccc(-c2c(C)c3c(c(C)c2[C@H](OC(C)(C)C)C(=O)O)NC(=O)N(C2CCCCC2)CC3)cc1 [Compound 71]
EC50 [1]: 16 nM

Cc1ccc(-c2c(C)c3c(c(C)c2[C@H](OC(C)(C)C)C(=O)O)N(S(C)(=O)=O)Cc2ccc(N)nc2-3)cc1 [Compound 386]
EC50 [2]: 86 nM

COc1ccc2c(c1F)CN(S(C)(=O)=O)c1c(C)c([C@H](OC(C)(C)C)C(=O)O)c(-c3ccc4c(c3C)NCCO4)c(C)c1-2 [Compound 293]
EC50 [4]: 3.3 nM

Cc1ccc(-c2c(C)c3c(c(C)c2[C@H](OC(C)(C)C)C(=O)O)NS(=O)(=O)N(C2CCCCCC2)CC3)cc1 [Compound 128]
EC50 [5]: 10 nM

Cc1ccc(-c2c(C)c3c(c(C)c2[C@H](OC(C)(C)C)C(=O)O)N(S(C)(=O)=O)Cc2cc(C)cnc2-3)c(O)c1 [Compound 382]
EC50 [2]: 49 nM

Cc1ccc(-c2c(C)c3c(c(C)c2[C@H](OC(C)(C)C)C(=O)O)N(S(C)(=O)=O)Cc2c(F)ccc(F)c2-3)cc1 [Compound 142]
EC50 [3]: 4.4 nM

CCC(C)(C)O[C@H](C(=O)O)c1c(C)c2c(c(C)c1-c1ccc3c(c1C)NCCO3)-c1c(F)cccc1CN2S(C)(=O)=O [Compound 351]
EC50 [6]: 4.5 nM

Cc1c(-c2ccc(Cl)c3[nH]ccc23)c([C@H](OC(C)(C)C)C(=O)O)c(C)c2c1-c1c(F)cccc1CN2S(C)(=O)=O [Compound 364]
EC50 [2]: 16 nM

Cc1c(-c2ccc(Cl)cc2)c([C@H](OC(C)(C)C)C(=O)O)c(C)c2c1-c1ncc(F)cc1CN2S(C)(=O)=O [Compound 325]
EC50 (Table A-7, four days): 11 nM

Cc1c(-c2ccc(Cl)cc2)c([C@H](OC(C)(C)C)C(=O)O)c(C)c2c1-c1ncccc1CN2S(C)(=O)=O [Compound 369]
EC50 [2]: 44 nM

Cc1c(-c2c(C)c3c(c(C)c2[C@H](OC(C)(C)C)C(=O)O)N(S(C)(=O)=O)Cc2cccc(F)c2-3)ccc2c1NCCC2 [Compound 359]
EC50 [6]: 5.4 nM

Cc1c(-c2ccc3c(c2Cl)NCCO3)c([C@H](OC(C)(C)C)C(=O)O)c(C)c2c1-c1c(F)ccc(F)c1CN2S(C)(=O)=O [Compound 296]
EC50 [4]: < 7.8 nM
